Measured values taken from article PMC7856178 (Archives of biochemistry and biophysics, 2020).
“And” between values parts separate entries of the source, which are not always exact repeats. Identical values can stand only once. Like-named read-outs stand apart in the source and are kept apart here.

Assays:
[1] = in vivo; cited from earlier work
CYP3A4 [2] = biological target: T1, CYP3A4 (Homo sapiens, UniProt P08684); experiment: Rate of midazolam hydroxylation by pooled HLM; conditions: 100 μM substrate; for Turnover rate (per metabolizing P450 enzyme): per CYP3A4
Target sequence in this assay (P08684 whole entry): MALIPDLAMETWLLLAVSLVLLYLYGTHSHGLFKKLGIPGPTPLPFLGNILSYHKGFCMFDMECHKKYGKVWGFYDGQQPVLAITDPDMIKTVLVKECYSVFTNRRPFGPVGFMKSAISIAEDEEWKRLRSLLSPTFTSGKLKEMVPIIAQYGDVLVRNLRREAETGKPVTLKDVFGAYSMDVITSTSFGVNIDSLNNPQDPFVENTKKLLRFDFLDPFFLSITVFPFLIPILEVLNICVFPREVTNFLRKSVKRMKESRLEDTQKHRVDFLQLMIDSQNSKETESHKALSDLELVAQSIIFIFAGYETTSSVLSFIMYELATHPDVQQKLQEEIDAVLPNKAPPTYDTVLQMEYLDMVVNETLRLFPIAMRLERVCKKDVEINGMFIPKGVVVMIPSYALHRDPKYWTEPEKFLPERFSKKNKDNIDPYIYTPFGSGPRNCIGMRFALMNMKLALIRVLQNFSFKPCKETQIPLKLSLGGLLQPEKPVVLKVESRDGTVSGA

CYP3A4 [3] = conditions: prolonged exposure; human hepatocytes; cited from earlier work
CYP3A4 [4] = conditions: prolonged exposure; HepG2 cells; cited from earlier work
CYP2C19 = conditions: cited from earlier work
CYP2E1 [5] = biological target: CYP2E1 (Homo sapiens, UniProt P05181); type: binding
CYP1A2 = conditions: cited from earlier work
CYP3A5 = conditions: cited from earlier work
CYP2E1 [6] = conditions: cited from earlier work
CYP3A4 [7] = biological target: T1, CYP3A4; experiment: Fluorimetric assay of BQ debenzylation in intact and CYP2E1-enriched HLM
Target sequence in this assay (P08684 whole entry): as above

CYP3A4 [8] = biological target: T1, CYP3A4; type: binding; conditions: SS(3A4) in the presence of 25 μM ANF
Target sequence in this assay (P08684 2-503 limits assumed): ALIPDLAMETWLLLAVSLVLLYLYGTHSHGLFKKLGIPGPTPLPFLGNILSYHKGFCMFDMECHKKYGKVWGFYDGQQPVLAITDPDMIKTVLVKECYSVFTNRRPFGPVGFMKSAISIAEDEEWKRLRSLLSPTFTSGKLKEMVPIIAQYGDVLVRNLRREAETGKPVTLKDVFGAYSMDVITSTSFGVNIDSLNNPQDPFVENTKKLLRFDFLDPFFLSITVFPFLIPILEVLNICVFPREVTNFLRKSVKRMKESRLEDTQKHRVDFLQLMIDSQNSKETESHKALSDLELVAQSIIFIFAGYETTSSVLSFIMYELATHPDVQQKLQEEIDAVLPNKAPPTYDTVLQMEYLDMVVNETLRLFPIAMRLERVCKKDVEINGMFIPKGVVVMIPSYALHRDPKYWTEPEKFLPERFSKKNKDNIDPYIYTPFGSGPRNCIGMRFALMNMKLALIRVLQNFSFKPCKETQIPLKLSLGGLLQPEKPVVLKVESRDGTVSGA

[9] = 25 μM ANF, all four HLM samples

## C[C@H]1c2cccc(O)c2C(O)=C2C(=O)[C@]3(O)C(O)=C(C(N)=O)C(=O)[C@@H](N(C)C)[C@@H]3[C@@H](O)[C@@H]21 [doxycyclin]
[1]
  Rate of metabolism under the influence of chronic alcohol exposure: increased rate of metabolism

## Cc1ncc2n1-c1ccc(Cl)cc1C(c1ccccc1F)=NC2 [Midazolam]
CYP3A4 [2]; HLM-A
  Turnover rate (per CPR): 11.2 ± 5.3 min⁻¹
  Turnover rate (per metabolizing P450 enzyme): 6.8 ± 3.2 min⁻¹
CYP3A4 [2]; HLM-N2
  Turnover rate (per CPR): 7.3 ± 2.1 min⁻¹
  Turnover rate (per metabolizing P450 enzyme): 3.3 ± 0.9 min⁻¹
CYP3A4 [2]; HLM-N3
  Turnover rate (per CPR): 8.2 ± 4.0 min⁻¹
  Turnover rate (per metabolizing P450 enzyme): 3.1 ± 1.5 min⁻¹

## CCO [ethanol]
CYP3A4 [3]
  Concentration of ethanol giving a noticeable elevation in the CYP3A4 content: ≥ 50000 µM
CYP3A4 [4]
  Concentration of ethanol giving a noticeable elevation in the CYP3A4 content: ≥ 50000 µM

## CN(C)CCC=C1c2ccccc2CCc2ccccc21 [Amitriptyline]
CYP2C19
  Km: ~14 µM

## O[C@@H](CS)[C@@H](O)CS (racemic) [DTT, dithiothreitol]
CYP2E1 [5]
  Kd: 10.4 mM

## c1ccc(COc2ccc3cccnc3c2)cc1 [BQ, 7-benzyloxyquinoline]
CYP1A2
  Turnover number with BQ, times lower than that of CYP3A4: 8.5 times
CYP3A5
  Turnover number with BQ, times lower than that of CYP3A4: 4.3 times
CYP2E1 [6]
  Ability of CYP2E1 to metabolize BQ: lacks any potential to metabolize this substrate
CYP3A4 [7]; HLM-A+2E1 (1:1 CYP2E1-enriched), +25 μM ANF
  N (Hill coefficient): 0.85 ± 0.26 (0.03)
CYP3A4 [7]; HLM-A+2E1 (1:1 CYP2E1-enriched), no effector
  N (Hill coefficient): 1.47 ± 0.30 (0.30)
CYP3A4 [7]; HLM-A, +25 μM ANF
  N (Hill coefficient): 0.99 ± 0.20 (0.03)
CYP3A4 [7]; HLM-A, no effector
  N (Hill coefficient): 1.02 ± 0.15
CYP3A4 [7]; HLM-N1+2E1 (1:1 CYP2E1-enriched), +25 μM ANF
  N (Hill coefficient): 0.87 ± 0.16 (0.02)
CYP3A4 [7]; HLM-N1+2E1 (1:1 CYP2E1-enriched), no effector
  N (Hill coefficient): 1.26 ± 0.12 (0.01)
CYP3A4 [7]; HLM-N1, +25 μM ANF
  N (Hill coefficient): 0.83 ± 0.12 (<10^−2)
CYP3A4 [7]; HLM-N1, no effector
  N (Hill coefficient): 2.24 ± 0.37
CYP3A4 [7]; HLM-N2+2E1 (1:1 CYP2E1-enriched), +25 μM ANF
  N (Hill coefficient): 0.86 ± 0.08 (<10^−2)
CYP3A4 [7]; HLM-N2+2E1 (1:1 CYP2E1-enriched), no effector
  N (Hill coefficient): 1.13 ± 0.03 (<10^−6)
CYP3A4 [7]; HLM-N2, +25 μM ANF
  N (Hill coefficient): 1.02 ± 0.37 (0.01)
CYP3A4 [7]; HLM-N2, no effector
  N (Hill coefficient): 1.92 ± 0.02
  Vmax, times lower than that of HLM-A: 2.2 times
CYP3A4 [7]; HLM-N3+2E1 (1:1 CYP2E1-enriched), +25 μM ANF
  N (Hill coefficient): 1.02 ± 0.24 (0.07)
CYP3A4 [7]; HLM-N3+2E1 (1:1 CYP2E1-enriched), no effector
  N (Hill coefficient): 1.28 ± 0.09 (0.01)
CYP3A4 [7]; HLM-N3, +25 μM ANF
  N (Hill coefficient): 1.22 ± 0.30 (0.03)
CYP3A4 [7]; HLM-N3, no effector
  N (Hill coefficient): 2.09 ± 0.44
  Vmax, times lower than that of HLM-A: 1.4 times
CYP3A4 [7]; all three samples of HLM-N, no effector
  Hill coefficient: 1.9 – 2.2
CYP3A4 [7]; no effector
  Vmax of HLM-A relative to HLM-N1: over six times higher

## O=c1cc(-c2ccccc2)oc2c1ccc1ccccc12 [ANF, 7,8-benzoflavone]
CYP3A4 [8]; calculated from [CYP2E1]50%
  (Lipid/CYP2E1)50%: 604 and 604 ± 62
CYP3A4 [8]; from Rmax by Eq. 4
  FRET Efficiency: 84 ± 20%
CYP3A4 [7]; 25 μM ANF, HLM-A
  Effect of ANF on Vmax of BQ metabolism: no statistically significant effect
CYP3A4 [7]; 25 μM ANF, HLM-N1
  Effect of ANF on the maximal rate of BQ metabolism: increased the maximal rate of reaction almost two times
CYP3A4 [7]; 25 μM ANF, HLM-N2
  Effect of ANF on Vmax of BQ metabolism: no statistically significant effect
CYP3A4 [7]; 25 μM ANF, HLM-N3
  Effect of ANF on the maximal rate of BQ metabolism: over two-fold inhibition
CYP3A4 [7]; [9]
  Effect of ANF on S50 values of BQ: considerably decreased the S50 values
  Effect of ANF on homotropic cooperativity observed with BQ: eliminated homotropic cooperativity
